# Measured values reported in patent publication US20250381179A1, “CHROMAN-BASED COMPOUNDS FOR TREATING CANCER” (priority 2024, published 2025).
# Read-outs that look alike come from different tables or passages of the source.
# Assays:
# CYP2B6 = CYP2B6 induction in vitro (activity, mRNA); type: in vitro ADME
# in vivo = conditions: female, rat, po
# CYP2C19 = CYP2C19 (Homo sapiens, UniProt P33261)
# CYP3A [1] = assay: CYP3A direct inhibition; type: in vitro ADME; conditions: highest concentration evaluated (10 μM)
# CYP2C9 = CYP2C9 (Homo sapiens, UniProt P11712)
# CYP3A [2] = system: CYP3A
# [3] = Phase 1 study: plasma pharmacokinetics in patients; type: in vivo, human; conditions: for conversion to compound (1-h) in patients: plasma PK after oral dosing
# Protocol: All patients received compound (1-g) orally. The time of day for administration of compound (1-g) was consistent. Compound (1-g) was taken whole with liquid(s) and with food in the morning. The patient avoided taking other medications at the same time as compound (1-g). When possible, the patient took other medications in the evening or separated by a minimum of 4 hours following compound (1-g) dosing. On scheduled PK collection days (Cycle 1 Day 1, Cycle 1 Day 15, and Day 1 of Cycles 2, 3, 4, and 6) patients were instructed to wait until they arrive at the study center to take their study drug when told. If a patient missed a dose of compound (1-g), the patient was required to take the dose as soon as possible, but not less than 12 hours before the next dose is due. If vomiting occurred after taking the study treatment, the patient was instructed not to retake the dose and record the dose recorded as taken in the dosing diary, noting that the patient vomited and marking the time of vomiting. Patients were instructed to take the next scheduled dose of compound (1-g).
# The plasma PK parameters (including AUC(0-∞), AUC(0-τ), Cmax, tmax, and T1/2) of compound (1-g) following oral administration was assessed by analysis of blood samples. During treatment, PK blood samples were taken at approximately the following time points: • Cycle 1 Day 1, and Day 15: pre-dose; at 1, 2, and 4-hour post-dose (±5 min); 6 and 8-hour post-dose (±10 min); and 24 hours post-dose (+1 hour); • Cycle 2, 3, 4, and 6 Day 1: pre-dose only.
# Plasma concentrations of compound (1-g) were used to calculate the PK parameters. These parameters were listed by individual patient and summarized by descriptive statistics (means, medians, ranges, standard deviations, and coefficients of variation as appropriate) by cohort.
# Compound (1-g) was administered orally to patients once a day at 100, 200, 300 mg, 400 mg, and 600 mg doses.
# MCF7 xenograft tumors = MCF7 xenograft tumors in mice, once daily oral administration; type: in vivo; conditions: once daily oral 30 mg/kg/day (lowest dose level evaluated)
# CYP1A2 = CYP1A2 (Homo sapiens, UniProt P05177); assay: CYP1A2 direct inhibition; type: in vitro ADME; conditions: highest concentration evaluated (10 μM)
# MCF7 cells = assay: MCF7 cell growth inhibition (luminescence-based proliferation assay, CellTiter-Glo)
# Protocol: MCF7 cells were obtained from American Type Culture Collection (ATCC). For cell growth assay, MCF7 cells were seeded in 96-well plates at 2000 cells/well in 90 μL of DMEM medium containing 10% fetal bovine serum, and then incubated at 37° C. with 5% CO2 in air overnight. The following day, compound (1-g) and compound (1-h) were administered to the cells by using 1000× compound stock solution prepared in DMSO at concentrations of 3, 1, 0.33, 0.11, 0.037, 0.012, 0.0041, 0.0013, and 0.00046 mM. 1000x compound stock solution was first diluted in culturing medium to 10×, then 10 μL compound medium was added to each well in the cell plates. After administration of compound (1-g) and compound (1-h), the cells were then incubated at 37° C. for 6 days. Upon completion, the plates were equilibrated at room temperature for approximately 10 minutes. 100 μL of CellTiter-Glo® Reagent (Promega) was added to each well. The plates were then incubated at room temperature for 10 minutes and luminescence was recorded by EnSpire plate reader (PerkinElmer).
# Sequence of CYP2C19 (P33261 whole entry): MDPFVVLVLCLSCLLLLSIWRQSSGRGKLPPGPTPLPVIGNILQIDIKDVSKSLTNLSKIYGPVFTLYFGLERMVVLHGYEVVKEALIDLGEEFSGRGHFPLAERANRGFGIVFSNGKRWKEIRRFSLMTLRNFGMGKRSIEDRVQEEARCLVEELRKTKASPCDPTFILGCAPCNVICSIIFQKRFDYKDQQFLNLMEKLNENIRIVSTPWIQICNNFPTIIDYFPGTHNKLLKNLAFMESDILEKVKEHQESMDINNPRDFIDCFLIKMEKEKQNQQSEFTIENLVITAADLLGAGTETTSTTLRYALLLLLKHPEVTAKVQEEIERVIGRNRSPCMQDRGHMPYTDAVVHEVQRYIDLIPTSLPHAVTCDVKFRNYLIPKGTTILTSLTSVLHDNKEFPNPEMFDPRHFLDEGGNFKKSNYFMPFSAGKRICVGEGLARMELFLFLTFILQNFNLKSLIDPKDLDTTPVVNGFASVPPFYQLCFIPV
# Sequence of CYP1A2 (P05177 whole entry): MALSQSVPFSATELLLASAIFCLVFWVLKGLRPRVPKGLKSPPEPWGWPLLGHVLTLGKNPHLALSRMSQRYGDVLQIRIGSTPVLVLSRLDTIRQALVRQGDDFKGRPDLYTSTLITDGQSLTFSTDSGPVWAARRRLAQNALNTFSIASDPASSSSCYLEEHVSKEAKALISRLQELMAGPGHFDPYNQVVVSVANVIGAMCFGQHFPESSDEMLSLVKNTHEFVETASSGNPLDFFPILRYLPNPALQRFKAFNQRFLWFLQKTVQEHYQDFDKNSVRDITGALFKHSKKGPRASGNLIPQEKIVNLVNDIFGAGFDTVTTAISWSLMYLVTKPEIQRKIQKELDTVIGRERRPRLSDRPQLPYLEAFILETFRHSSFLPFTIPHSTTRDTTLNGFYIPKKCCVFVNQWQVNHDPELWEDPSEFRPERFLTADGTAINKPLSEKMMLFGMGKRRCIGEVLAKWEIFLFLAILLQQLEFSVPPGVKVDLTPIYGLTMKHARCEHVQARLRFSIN
# Sequence of CYP2C9 (P11712 whole entry): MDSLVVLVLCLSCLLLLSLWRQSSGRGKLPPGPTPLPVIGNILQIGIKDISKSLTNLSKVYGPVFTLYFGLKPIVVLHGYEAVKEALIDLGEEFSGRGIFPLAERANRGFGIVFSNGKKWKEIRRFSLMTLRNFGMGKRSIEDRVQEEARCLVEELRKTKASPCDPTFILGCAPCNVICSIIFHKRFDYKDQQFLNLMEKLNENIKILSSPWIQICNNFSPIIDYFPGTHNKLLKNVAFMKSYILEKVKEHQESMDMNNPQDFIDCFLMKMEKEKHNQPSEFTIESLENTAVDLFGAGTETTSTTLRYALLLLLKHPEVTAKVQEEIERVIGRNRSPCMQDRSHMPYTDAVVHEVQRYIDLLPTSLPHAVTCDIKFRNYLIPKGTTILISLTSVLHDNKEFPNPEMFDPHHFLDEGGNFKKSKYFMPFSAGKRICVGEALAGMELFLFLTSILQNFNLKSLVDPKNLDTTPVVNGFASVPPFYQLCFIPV
compound,measurement,setting,value
"O=C1CC[C@H](N2Cc3cc(N4CCN(CC5CCN(c6ccc([C@@H]7c8ccc(O)cc8OC[C@@H]7c7ccccc7)cc6F)CC5)CC4)ccc3C2=O)C(=O)N1 [compound (1-g), (S)-3-(5-(4-((1-(2-fluoro-4-((3S,4R)-7-hydroxy-3-phenylchroman-4-yl)phenyl)piperidin-4-yl)methyl)piperazin-1-yl)-1-oxoisoindolin-2-yl)piperidine-2,6-dione]",CYP2B6 induction (activity or mRNA expression),CYP2B6,did not significantly induce activity or mRNA expression
same,AUC,in vivo; AUC in the evaluated tissues (compared with plasma),> 2800 ng·h/mL
same,AUC,in vivo; plasma AUC,2800 ng·h/mL
same,CYP2C19 time-dependent inhibition,CYP2C19,without showing time-dependent inhibition
same,CYP3A direct inhibition,CYP3A [1],did not directly inhibit
same,CYP2C9 time-dependent inhibition,CYP2C9,without showing time-dependent inhibition
same,CYP3A time-dependent inhibition,CYP3A [2],weak time-dependent inhibition
same,Tmax,"[3]; human, plasma, po, 100 mg, patient plasma, oral (1-g) 100 mg QD, C1D1, n = 3, *median value, read-out: Tmax*",12.7 h
same,AUC(0-t),"[3]; human, plasma, po, 100 mg, patient plasma, oral (1-g) 100 mg QD, C1D1, n = 3, mean, read-out: AUC0-24 h",7570 ng·h/mL
same,Cmax,"[3]; human, plasma, po, 100 mg, patient plasma, oral (1-g) 100 mg QD, C1D1, n = 3, mean, read-out: Cmax",432 ng/mL
same,half-life,"[3]; human, plasma, po, 100 mg, patient plasma, oral (1-g) 100 mg QD, C1D1, n = 3, mean, read-out: T½ (converted)",1210 min
same,AUC(0-t),"[3]; human, plasma, po, 100 mg, patient plasma, oral (1-g) 100 mg QD, C1D15 (steady state), n = 3, mean, read-out: AUC0-24 h",19500 ng·h/mL
same,Cmax,"[3]; human, plasma, po, 100 mg, patient plasma, oral (1-g) 100 mg QD, C1D15 (steady state), n = 3, mean, read-out: Cmax",1010 ng/mL
same,Tmax,"[3]; human, plasma, po, 100 mg, patient plasma, oral (1-g) 100 mg QD, C1D15, n = 3, *median value, read-out: Tmax*",6.67 h
same,half-life,"[3]; human, plasma, po, 100 mg, patient plasma, oral (1-g) 100 mg QD, C1D15, n = 3, mean, read-out: T½ (converted)",1920 min
same,Tmax,"[3]; human, plasma, po, 200 mg, patient plasma, oral (1-g) 200 mg QD, C1D1, n = 12, *median value, read-out: Tmax*",5.5 h
same,AUC(0-t),"[3]; human, plasma, po, 200 mg, patient plasma, oral (1-g) 200 mg QD, C1D1, n = 12, mean, read-out: AUC0-24 h",11200 ng·h/mL
same,Cmax,"[3]; human, plasma, po, 200 mg, patient plasma, oral (1-g) 200 mg QD, C1D1, n = 12, mean, read-out: Cmax",630 ng/mL
same,half-life,"[3]; human, plasma, po, 200 mg, patient plasma, oral (1-g) 200 mg QD, C1D1, n = 12, mean, read-out: T½ (converted)",2300 min
same,AUC(0-t),"[3]; human, plasma, po, 200 mg, patient plasma, oral (1-g) 200 mg QD, C1D15 (steady state), n = 12, mean, read-out: AUC0-24 h",26000 ng·h/mL
same,Cmax,"[3]; human, plasma, po, 200 mg, patient plasma, oral (1-g) 200 mg QD, C1D15 (steady state), n = 12, mean, read-out: Cmax",1340 ng/mL
same,Tmax,"[3]; human, plasma, po, 200 mg, patient plasma, oral (1-g) 200 mg QD, C1D15, n = 12, *median value, read-out: Tmax*",4 h
same,half-life,"[3]; human, plasma, po, 200 mg, patient plasma, oral (1-g) 200 mg QD, C1D15, n = 12, mean, read-out: T½ (converted)",2930 min
same,Tmax,"[3]; human, plasma, po, 300 mg, patient plasma, oral (1-g) 300 mg QD, C1D1, n = 10, *median value, read-out: Tmax*",5.8 h
same,AUC(0-t),"[3]; human, plasma, po, 300 mg, patient plasma, oral (1-g) 300 mg QD, C1D1, n = 10, mean, read-out: AUC0-24 h",16600 ng·h/mL
same,Cmax,"[3]; human, plasma, po, 300 mg, patient plasma, oral (1-g) 300 mg QD, C1D1, n = 10, mean, read-out: Cmax",963 ng/mL
same,half-life,"[3]; human, plasma, po, 300 mg, patient plasma, oral (1-g) 300 mg QD, C1D1, n = 10, mean, read-out: T½ (converted)",1870 min
same,AUC(0-t),"[3]; human, plasma, po, 300 mg, patient plasma, oral (1-g) 300 mg QD, C1D15 (steady state), n = 10, mean, read-out: AUC0-24 h",41800 ng·h/mL
same,Cmax,"[3]; human, plasma, po, 300 mg, patient plasma, oral (1-g) 300 mg QD, C1D15 (steady state), n = 10, mean, read-out: Cmax",2190 ng/mL
same,Tmax,"[3]; human, plasma, po, 300 mg, patient plasma, oral (1-g) 300 mg QD, C1D15, n = 10, *median value, read-out: Tmax*",4.8 h
same,half-life,"[3]; human, plasma, po, 300 mg, patient plasma, oral (1-g) 300 mg QD, C1D15, n = 10, mean, read-out: T½ (converted)",1970 min
same,Tmax,"[3]; human, plasma, po, 400 mg, patient plasma, oral (1-g) 400 mg QD, C1D1, n = 6, *median value, read-out: Tmax*",6 h
same,AUC(0-t),"[3]; human, plasma, po, 400 mg, patient plasma, oral (1-g) 400 mg QD, C1D1, n = 6, mean, read-out: AUC0-24 h",18800 ng·h/mL
same,Cmax,"[3]; human, plasma, po, 400 mg, patient plasma, oral (1-g) 400 mg QD, C1D1, n = 6, mean, read-out: Cmax",1070 ng/mL
same,half-life,"[3]; human, plasma, po, 400 mg, patient plasma, oral (1-g) 400 mg QD, C1D1, n = 6, mean, read-out: T½ (converted)",1820 min
same,Tmax,"[3]; human, plasma, po, 400 mg, patient plasma, oral (1-g) 400 mg QD, C1D15, n = 5, *median value, read-out: Tmax*",4.4 h
same,AUC(0-t),"[3]; human, plasma, po, 400 mg, patient plasma, oral (1-g) 400 mg QD, C1D15, n = 5, mean, read-out: AUC0-24 h",45900 ng·h/mL
same,Cmax,"[3]; human, plasma, po, 400 mg, patient plasma, oral (1-g) 400 mg QD, C1D15, n = 5, mean, read-out: Cmax",2360 ng/mL
same,half-life,"[3]; human, plasma, po, 400 mg, patient plasma, oral (1-g) 400 mg QD, C1D15, n = 5, mean, read-out: T½ (converted)",2690 min
same,Tmax,"[3]; human, plasma, po, 600 mg, patient plasma, oral (1-g) 600 mg QD, C1D1, n = 4, *median value, read-out: Tmax*",4.5 h
same,AUC(0-t),"[3]; human, plasma, po, 600 mg, patient plasma, oral (1-g) 600 mg QD, C1D1, n = 4, mean, read-out: AUC0-24 h",26100 ng·h/mL
same,Cmax,"[3]; human, plasma, po, 600 mg, patient plasma, oral (1-g) 600 mg QD, C1D1, n = 4, mean, read-out: Cmax",1390 ng/mL
same,half-life,"[3]; human, plasma, po, 600 mg, patient plasma, oral (1-g) 600 mg QD, C1D1, n = 4, mean, read-out: T½ (converted)",2450 min
same,Tmax,"[3]; human, plasma, po, 600 mg, patient plasma, oral (1-g) 600 mg QD, C1D15, n = 4, *median value, read-out: Tmax*",6 h
same,AUC(0-t),"[3]; human, plasma, po, 600 mg, patient plasma, oral (1-g) 600 mg QD, C1D15, n = 4, mean, read-out: AUC0-24 h",48600 ng·h/mL
same,Cmax,"[3]; human, plasma, po, 600 mg, patient plasma, oral (1-g) 600 mg QD, C1D15, n = 4, mean, read-out: Cmax",2680 ng/mL
same,half-life,"[3]; human, plasma, po, 600 mg, patient plasma, oral (1-g) 600 mg QD, C1D15, n = 4, mean, read-out: T½ (converted)",1650 min
same,AUC(0-t),"[3]; human, plasma, po, patients, 100-600 mg QD oral, read-out: AUC0-24h, range",7570 to 48600 ng·h/mL
same,Cmax,"[3]; human, plasma, po, patients, 100-600 mg QD oral, read-out: Cmax, range",432 to 2680 ng/mL
same,half-life,"[3]; human, plasma, po, patients, 100-600 mg QD oral, read-out: mean effective T1/2 at steady state, range",1210 to 2930 min
same,Tmax,"[3]; human, plasma, po, patients, 100-600 mg QD oral, read-out: median Tmax, range across the dose levels",4 to 13 h
same,Cmax,"[3]; patient plasma, oral (1-g) 100 mg QD, C1D15 (steady state), n = 3, mean",1008.67 ng/mL
same,Cmax,"[3]; patient plasma, oral (1-g) 200 mg QD, C1D15 (steady state), n = 12, mean",1341.75 ng/mL
same,dose proportionality of pharmacokinetics,"[3]; patients, FIGS. 4A, 4C, 4D",dose proportional relationship up to 400 mg but almost plateaued at 400 mg
same,Cmax and AUC0-24h versus dose,"[3]; patients, preliminary results",dose-dependent increases
same,conversion to compound (1-h) in patients,[3],partially converted to compound (1-h)
same,conversion to compound (1-h) in patients,[3]; listed as 1-g,partially metabolized to form compound 1-h
same,effect on MCF7 xenograft tumors,MCF7 xenograft tumors,achieved tumor regression
same,CYP1A2 direct inhibition,CYP1A2,did not directly inhibit
same,GI50,"MCF7 cells; Homo sapiens, 144 h, MCF7 cells, 6 days, CellTiter-Glo",6.2 nM
same,reduced the tumor growth by (FIG. 3A/3B),MCF7 cells; MCF7 cell proliferation assay,about 50%
same,severely toxic dose in 10% of animals (STD10),"female, rat, in vivo, po, 28 day",270 mg/kg/day
same,off-target adverse toxicities,"rat, in vivo",no off-target adverse toxicities observed
same,key organ effects,"rats, 28-day GLP",considered on target pharmacological effects
